≈ marks a conversion by molar mass, not a printed value. Read-outs that look alike come from different tables or passages of the source.
Legend:
[1] = test system: P. falciparum Sierra Leone (D-6) clone; assay: In vitro antimalarial susceptibility, 3H-hypoxanthine uptake, Sierra Leone (D-6) clone; format: cell-based, Plasmodium falciparum; settings: for IC50: Plasmodium falciparum
Procedure: (§1) The former clone is a strain that is resistant to mefloquine and the latter, to chloroquine, pyrimethamine, sulfadoxine, and quinine.
(§2) In vitro assays were conducted using a modification of the semiautomated microdilution technique of Desjardins et al., Antimicrob. Agents Chemoether., 1979, Volume 16, page 710 and Milhous et al., Antimicrob. Agents Chemother., 1985, Volume 27, page 525. Two P. falciparum malaria parasite clones, designated as Indochina (W-2) and Sierra Leone (D-6), were utilized in susceptibility testing. They were derived by direct visualization and micromanipulation from patient isolates obtained by the Centers for Disease Control, Atlanta, GA in 1980 and 1982, respectively. The patients had acquired infections either in Vietnam or Sierra Leone. The Indochina clone is resistant to the antimalarials chloroquine, sulfadoxine, pyrimethamine, and quinine, whereas the Sierra Leone, is resistant to mefloquine but susceptible to chloroquine, quinine, sulfadoxine, and pyrimethamine. Test compounds were initially dissolved in DMSO and 70% ethanol and diluted in RPMI 1640 culture medium with 10% human plasma to 400 fold. Drugs were subsequently further diluted using the Cetus Pro/Pette (Perkin-Elmer Corp., Norwalk, CT) over a range of 1.56-100×10^-9 molar. Parasite inocula (at 0.5% parasitemia and a 1% hematocrit) were incubated for 24 hours and added to equimolar concentrations of each test compound prior to the addition of ^3 H-hypoxanthine. After a further incubation of 18 hours, particulate matter was harvested from each microtiter well using an automated cell harvester (Skatron, Inc., Sterling, VA). Uptake of ^3 H-hypoxanthine was measured using a scintillation spectrophotometer (Model LS3801, Beckman Instruments, Irvine, CA).

[2] = test system: P. falciparum Indochina (W-2) clone; assay: In vitro antimalarial susceptibility, 3H-hypoxanthine uptake, Indochina (W-2) clone; format: cell-based, Plasmodium falciparum; settings: for IC50: Plasmodium falciparum
Procedure: as §1, §2

physchem = format: physicochemical
Procedure: To compare the relative stability of the new agents vs. artesunic acid, stability studies of compound 8d and compound 1 were conducted in 2.5% K2 CO3 /D2 O solution at room temperature and were monitored by PMR. [drawing 8]
(§3) To a 5 mm NMR tube containing 10 mg of sample was added 0.5 mL of 2.5% K2 CO3 /D2 O solution. The initial spectrum of the solution was taken within 5 minutes, and again at intervals thereafter. The extent of hydrolysis was estimated by the following equation:
(§4) % Decomposition=(B/2A+B)×100
(§5) where A=integration of H-10 (5.80 ppm, d, J=10.8 Hz, 1H) and H-12 (5.71 ppm, s, 1H) of artesunate; B=integration of the singlet at 2.42 ppm for the potassium succinate formed. With time, the intensity of potassium succinate (2.42 ppm) signal increases, while that of H-10 and H-12 of artesunate decreases. The stability study of compound 1 in 5% NaHCO3 /D2 O was also carried out by the same procedure.

Plasmodium berghei = assay: In vivo suppressive blood schizonticidal and curative activity in infected mice, 60 days survival; set-up: species or system Plasmodium berghei (in mice); settings: for Number of Cures: cured = surviving 60 days; for Number active (A): active = survival time greater than twice control mice (12 to 14 days)
Procedure: The suppressive blood schizonticidal and curative activities of artemisinin, artelinic acid and artesunic acid, were measured in a test where mice were infected with 5.98×10^5 Plasmodium berghei parasitized cells intraperitoneally on day zero. […] The dose levels of compounds given were 640, 160, and 40 mg/kg/day. Blood films were taken on days 6, 13, and 20. Blood schizonticidal activity was determined by monitoring blood films for the appearance of parasites and for extended survival times compared to infected untreated controls. Mice surviving 60 days were considered cured. The infected untreated control mice (negative controls) died on either day 6 or 7. Compounds were considered active when the survival time of the treated mice was greater than twice the control mice, i.e., 12 to 14 days.

cerebral malaria = settings: background; cited from earlier work
malaria [3] = settings: background; cited from earlier work
[4] = test system: Plasmodium falciparum D-6 (Sierra Leone clone) and W-2 (Indochina clone); assay: In vitro antimalarial activity against both clones, summarised in words; format: cell-based; settings: D-6 and W-2 clones
Procedure: as §1
as §2, with “CA). Concentration-response data were analyzed by nonlinear regression and the IC50 's (50% inhibitory concentrations) for each compound were calculated.” for “CA).”

malaria [5] = settings: background, reported; cited from earlier work
[6] = Stability in 5% NaHCO3/D2O at room temperature, monitored by PMR; format: physicochemical
Procedure: as §3, §4, §5

[7] = background, cited from earlier work
[8] = 40 mg/kg/day SC x 3 days, 5% NaHCO3
[9] = 160 mg/kg/day SC x 3 days, 5% NaHCO3
[10] = 640 mg/kg/day SC x 3 days, 5% NaHCO3
[11] = 40 mg/kg/day SC x 3 days, peanut oil

Work on `COC(=O)CCOC1OC2OC3(C)CCC4C(C)CCC(C1C)C24OO3` (stereo not shown) [Compound 5b, Methyl 3-(10-Dihydroartemisininoxy)propionate] yielded an IC50 [1] of 1.84 ng/mL (≈ 4.97 nM) and an IC50 [2] of 0.64 ng/mL (≈ 1.73 nM).
In the case of `CC1CCC2C(C)C(OCc3ccc(C(=O)O)cc3)OC3OC4(C)CCC1C32OO4` (stereo not shown) [Compound 8d, Para-(10-Dihydroartemisininoxy)methylbenzoic Acid], the “In vitro antimalarial activity IC50, Sierra Leone (D-6)” value [1] is reported as 4.07 ng/mL, the detectable change (physchem; 2.5% K2CO3/D2O, room temperature, after 35 days) is reported as “no detectable change” and the degraded at 1.5 h (physchem; 2.5% k2co3/d2o) is reported as 0%. The degraded at 24 h (physchem; 2.5% k2co3/d2o) was 0%, the degraded at 48 h (physchem; 2.5% k2co3/d2o) was 0% and the degraded at 72 h (physchem; 2.5% k2co3/d2o) was 0%. For the same compound, the degraded at 96 h (physchem; 2.5% k2co3/d2o) was 0%, the degraded at 1608 h (physchem; 2.5% k2co3/d2o) was < 3% and the “In vitro antimalarial activity IC50, Indochina Clone (W-2)” value [2] was 1.38 ng/mL. For the same compound, the “Number of Cures” value (Plasmodium berghei; [8]) was 5/5, the “Number of Cures” value (Plasmodium berghei; [9]) was 5/5 and the “Number of Cures” value (Plasmodium berghei; [10]) was 5/5.
`CCOC(=O)COC1OC2OC3(C)CCC4C(C)CCC(C1C)C24OO3` (stereo not shown) [Compound 5a, Ethyl 2-(10-Dihydroartemisininoxy)acetate] gave an IC50 [1] of 0.6 ng/mL (≈ 1.62 nM) and an IC50 [2] of 0.26 ng/mL (≈ 0.702 nM).
In the case of `CC1CCC2C(C)C(OCCCC(=O)O)OC3OC4(C)CCC1C32OO4` (stereo not shown) [Compound 7c, Potassium 4-(10-Dihydroartemisininoxy)butyrate], the “In vitro antimalarial activity IC50, Sierra Leone (D-6)” value [1] is reported as 75.52 ng/mL and the IC50 [2] is reported as 10.5 ng/mL.
In the case of `CC1CCC2C(C)C(OCCCC(=O)O)OC3OC4(C)CCC1C32OO4` (stereo not shown) [Compound 8c, 4-(10-Dihydroartemisininoxy)butyric Acid], the “In vitro antimalarial activity IC50, Sierra Leone (D-6)” value [1] is reported as 17.90 ng/mL and the “In vitro antimalarial activity IC50, Indochina Clone (W-2)” value [2] is reported as 8.04 ng/mL.
For `CC1CCC2C(C)C(OCCC(=O)O)OC3OC4(C)CCC1C32OO4` (stereo not shown) [Compound 7b, Potassium 3-(10-Dihydroartemisininoxy)propionate], the “In vitro antimalarial activity IC50, Sierra Leone (D-6)” value [1] was 85.02 ng/mL and the “In vitro antimalarial activity IC50, Indochina Clone (W-2)” value [2] was 23.28 ng/mL.
Compound `COC(=O)CCCOC1OC2OC3(C)CCC4C(C)CCC(C1C)C24OO3` (stereo not shown) [Compound 5c, Methyl 4-(10-Dihydroartemisininoxy)butyrate] has an IC50 [1] of 3.06 ng/mL (≈ 7.96 nM) and an IC50 [2] of 0.95 ng/mL (≈ 2.47 nM).
For `C[C@@H]1CC[C@H]2[C@@H](C)C(=O)O[C@@H]3O[C@@]4(C)CC[C@@H]1[C@]32OO4` [Compound 3, Artemisinin], the IC50 [1] is given as 2.93 ng/mL (≈ 10.4 nM), the “efficacy against cerebral malaria in man” value (cerebral malaria) is given as “proven efficacious against cerebral malaria in man” and the cross-resistance to chloroquine (malaria [3]) is given as “Neither artemisinin nor dihydroartemisinin exhibit cross-resistance to chloroquine”. For the same compound, the “cross-resistance to mefloquine, chloroquine, pyrimethamine, sulfadoxine, quinine” value [4] was “not cross-resistant”, the IC50 [2] was 0.66 ng/mL (≈ 2.34 nM) and the Blood films positive (Plasmodium berghei; 40 mg/kg, peanut oil, SC) was 3 of 5. For the same compound, the “Number active (A)” value (Plasmodium berghei; [11]) was 3/5, the “Number of Cures” value (Plasmodium berghei; [11]) was 2/5 and the Blood films (Plasmodium berghei; 160 mg/kg, peanut oil, SC) was “negative”. The “Number of Cures” value (Plasmodium berghei; 160 mg/kg/day SC x 3 days, peanut oil) was 5/5, the Blood films (Plasmodium berghei; 640 mg/kg, peanut oil, SC) was “negative” and the “Number of Cures” value (Plasmodium berghei; 640 mg/kg/day SC x 3 days, peanut oil) was 5/5.
With `CC1CCC2C(C)C(OCCC(=O)O)OC3OC4(C)CCC1C32OO4` (stereo not shown) [Compound 8b, 3-(10-Dihydroartemisininoxy)propionic Acid] the “In vitro antimalarial activity IC50, Sierra Leone (D-6)” value [1] was 51.74 ng/mL and the IC50 [2] was 35.6 ng/mL (≈ 100 nM).
For `CC1CCC2C(C)C(OCC(=O)O)OC3OC4(C)CCC1C32OO4` (stereo not shown) [Compound 7a, Potassium 2-(10-Dihydroartemisininoxy)acetate], the “In vitro antimalarial activity IC50, Sierra Leone (D-6)” value [1] was 53.79 ng/mL and the IC50 [2] was 26.2 ng/mL.
For `C[C@@H]1CC[C@H]2[C@@H](C)C(O)O[C@@H]3O[C@@]4(C)CC[C@@H]1[C@]32OO4` (stereo partly shown) [Compound 2, Dihydroartemisinin], the “therapeutic activity compared with its parent compound artemisinin” value (malaria [5]) is given as “more therapeutically active than its parent compound”, the “efficacy against cerebral malaria in man” value (cerebral malaria) is given as “proven efficacious against cerebral malaria in man” and the cross-resistance to chloroquine (malaria [3]) is given as “Neither artemisinin nor dihydroartemisinin exhibit cross-resistance to chloroquine”. For the same compound, the “cross-resistance to mefloquine, chloroquine, pyrimethamine, sulfadoxine, quinine” value [4] was “not cross-resistant”.
For `C[C@H]1[C@H](OC(=O)CCC(=O)O)O[C@@H]2O[C@@]3(C)CC[C@H]4[C@H](C)CC[C@@H]1[C@@]24OO3` [Compound 1, artesunic acid], the “half-life of hydrolysis (estimated)” value ([6]; 5% NaHCO3) was “about 4.5 days”, the “rate of hydrolysis compared with 2.5% K2CO3/D2O” value ([6]; 5% NaHCO3/D2O vs 2.5% K2CO3/D2O) was “slower” and the degraded at 4 h ([6]; 5% NaHCO3/D2O, room temperature, 4 hours, read-out: % Hydrolysis) was < 5%. For the same compound, the degraded at 48 h ([6]; 5% NaHCO3/D2O, room temperature, 2 days, read-out: % Hydrolysis) was 22%, the degraded at 72 h ([6]; 5% NaHCO3/D2O, room temperature, 3 days, read-out: % Hydrolysis) was 33% and the degraded at 96 h ([6]; 5% NaHCO3/D2O, room temperature, 4 days, read-out: % Hydrolysis) was 45%. The degraded at 192 h ([6]; 5% NaHCO3/D2O, room temperature, 8 days, read-out: % Hydrolysis) was 75%, the degraded at 216 h ([6]; 5% NaHCO3/D2O, room temperature, 9 days, read-out: % Hydrolysis) was 82% and the water solubility ([7]; listed as compound 1) was “water-soluble”. The “half-life of hydrolysis (estimated)” value (physchem; 2.5% K2CO3 solution) was < 24 h, the degraded at 1.5 h (physchem; 2.5% k2co3/d2o) was 20% and the degraded at 24 h (physchem; 2.5% k2co3/d2o) was 60%. For the same compound, the degraded at 48 h (physchem; 2.5% k2co3/d2o) was 75%, the degraded at 72 h (physchem; 2.5% k2co3/d2o) was 91% and the degraded at 96 h (physchem; 2.5% k2co3/d2o) was 98%. For the same compound, the “Number active (A)” value (Plasmodium berghei; [8]) was 2/5, the “Number of Cures” value (Plasmodium berghei; [8]) was 0/5 and the “Number active (A)” value (Plasmodium berghei; [9]) was 3/5. For the same compound, the “Number of Cures” value (Plasmodium berghei; [9]) was 0/5 and the “Number of Cures” value (Plasmodium berghei; [10]) was 5/5.
For `C[C@H]1[C@H](OC(=O)CCC(=O)O)O[C@@H]2O[C@@]3(C)CC[C@H]4[C@H](C)CC[C@@H]1[C@@]24OO3` [Sodium artesunate], the water solubility [7] is given as “water soluble”.
For `COC(=O)c1ccc(COC2OC3OC4(C)CCC5C(C)CCC(C2C)C35OO4)cc1` (stereo not shown) [Compound 5d, Methyl p-(10-Dihydroartemisininoxy)methylbenzoate], the IC50 [1] was 0.77 ng/mL (≈ 1.78 nM) and the IC50 [2] was 0.37 ng/mL (≈ 0.855 nM).
